{
  "source": "patent US20230355540A1",
  "about": "“STROKE TREATMENT” (Oxford University Innovation Limited, priority 2020, published 2023)",
  "key": {"[1]": {"test_system": "patients suffering ultra-acute stroke", "settings": "transdermal (i.e. systemic) delivery; cited from earlier work"}, "[2]": {"test_system": "Spontaneously Hypertensive Rats, middle cerebral artery occlusion (MCAo/stroke)", "experiment": "Collateral and control hemisphere perfusion by laser speckle contrast imaging after MCAo (Examples 4 and 5)", "format": "in vivo, rat", "settings": "from 25 minutes after MCAo for 45 minutes"}, "[3]": {"experiment": "Mean arterial pressure through femoral artery catheter during infusion after MCAo (Examples 4 and 5)", "format": "in vivo, rat", "settings": "from 25 minutes after MCAo for 45 minutes", "method": "Animals were randomized to receive intravenous infusion of saline (control, 0.3 ml/hr n=6) or infusion of free nitroglycerin (free-GTN, 0.25 μg/μl in saline, at 300 μl/h=4 μg/kg/min, n=6), commencing 25 minutes after MCAo.\nAnimals received intravenous infusion of free nitroglycerin (free-GTN, 2.5 μg/μl in saline, at 300 μl/h=40 μg/kg/min, n=4), commencing 25 minutes after MCAo. […] Vehicle control (saline) was the same control group used for 4 μg/kg/min studies (n=6)."}, "[4]": {"test_system": "Spontaneously Hypertensive Rats, middle cerebral artery occlusion (MCAo/stroke)", "settings": "FIG. 3", "experimental": "Animal experiments were performed on male Spontaneously Hypertensive Rats (SHRs) weighing 300-350 g (Harlan, Bicester, UK). All animals were housed in a 12 h light/dark cycle and had ad libitum access to food and water prior to experiments.\nRats were anesthetized with 5% isoflurane in O2/N2 (1:3) and maintained with 1% to 2% isoflurane. Core temperature was maintained at 37° C. by a thermocouple rectal probe and warming plate (Harvard Apparatus, UK). Incision sites were shaved, cleaned, and injected subcutaneously with 2 mg/kg 0.05% Bupivacaine (Aspen, UK). A femoral arterial line was used for continuous arterial pressure monitoring.\nThe filament was advanced into the right external carotid artery stump and up the internal carotid artery to occlude the origin of the right MCA.\nLaser Doppler flowmetry (LDF) (Oxford Optronix, Oxford, UK) was used to measure changes in cerebral blood flow (CBF) in both the MCA and collateral arterial territories using dual probes. The animal's head was secured with ear bars in a stereotaxic frame. […]\nPrior to MCAo, the femoral vein was cannulated with 2-French silicon tubing. […] Collateral perfusion was measured as a change from pre-injection baseline.\nPrior to MCAo, the femoral vein was cannulated with 2-French silicon tubing. […] Collateral perfusion was measured as a % change from pre-injection baseline."}, "[5]": {"settings": "i.v. infusion 4 μg/kg/min nitroglycerin"}},
  "data": [
    {"smiles": "O=[N+]([O-])OCC(CO[N+](=O)[O-])O[N+](=O)[O-]", "note": "[nitroglycerin]", "values": [
      {"measurement": "functional outcome", "setting": "[1]", "result": "did not improve"},
      {"measurement": "perfusion in the corresponding region of the control/contralateral hemisphere", "setting": "[2]; [5]", "result": "no significant effect"},
      {"measurement": "collateral blood perfusion (% change from pre-injection baseline)", "setting": "[2]; i.v. infusion 4 μg/kg/min nitroglycerin, stroke hemisphere", "result": "did not change"},
      {"measurement": "collateral blood perfusion (% change from pre-injection baseline)", "setting": "[2]; i.v. infusion 40 μg/kg/min, FIG. 14", "result": "did not change"},
      {"measurement": "perfusion in the corresponding region of the control/contralateral hemisphere", "setting": "[2]; i.v. infusion 40 μg/kg/min, FIG. 15", "result": "no significant effect"},
      {"measurement": "blood pressure (mean arterial pressure)", "setting": "[3]; [5]", "result": "dropped"},
      {"measurement": "blood pressure (mean arterial pressure)", "setting": "[3]; i.v. infusion 40 μg/kg/min, FIG. 16", "result": "significantly dropped"},
      {"measurement": "peak collateral perfusion", "setting": "[4]; free nitroglycerin not delivered using a SA-NT, Example 3b", "result": "only a modest increase"},
      {"measurement": "collateral perfusion with increasing doses", "setting": "[4]; one SHR, i.v. bolus over 1 minute of 12.5, 25, 50 and 100 m, from 30 minutes after MCAo", "result": "no additional increase"}
    ]}
  ]
}
